Active and inactive are the calls of the source. The calls are words filed in the database; no cut-off is given here.
Columns and labels:
[1] = Displacement of [3H]ethynylpropylbicycloorthobenzoate from GABAA receptor from rat cortical membrane by scintillation counting in presence of 1 uM GABA
[2] = Displacement of [3H]ethynylpropylbicycloorthobenzoate from GABA receptor from rat cortical membrane by scintillation counting in absence of GABA
Rattus norvegicus [3] = organism: Rattus norvegicus; experiment: Ratio of IC50 for rat cortical membrane GABA receptor in absence of GABA to IC50 for rat cortical membrane GABA receptor in presence of GABA
Rattus norvegicus [4] = organism: Rattus norvegicus; experiment: Displacement of [3H]ethynylpropylbicycloorthobenzoate from GABA receptor from rat cortical membrane at 100 uM by scintillation counting in presence of 1 uM GABA
Rattus norvegicus [5] = organism: Rattus norvegicus; experiment: Displacement of [3H]ethynylpropylbicycloorthobenzoate from GABA receptor from rat cortical membrane at 100 uM by scintillation counting in absence of GABA

Structure (SMILES) | IC50 [1] | IC50 [2] | Ratio IC50 (Rattus norvegicus [3]) | Activity (Rattus norvegicus [4]) | Activity (Rattus norvegicus [5])
CC(=O)[C@H]1CC[C@H]2[C@@H]3CC[C@H]4C[C@H](O)CC[C@]4(C)[C@H]3C(=O)C[C@]12C [ALFAXALONE] | 0.9 µM | 86 µM | 102 | – | –
COC(=O)c1cncn1[C@H](C)c1ccc(Br)cc1 | 7.62 µM | 109 µM | 15.6 | – | –
COC(=O)c1cncn1[C@H](C)c1ccc(I)cc1 [IODOMETOMIDATE I-123, R-] | 37 µM | > 300 µM | – | – | –
C[C@H](c1ccccc1)n1cncc1C(=O)O | – | – | – | inactive | inactive
CCOC(=O)c1cncn1[C@H](C)c1ccccc1 [ETOMIDATE] | 2.05 µM | 38 µM | 19.3 | – | –
COC(=O)c1cncn1[C@H](C)c1cccc(I)c1 | 53 µM | > 300 µM | – | – | –
CC(C)OC(=O)c1cncn1[C@H](C)c1ccccc1 | 1.47 µM | 20.7 µM | 14.6 | – | –
COC(=O)c1cncn1[C@H](C)c1ccccc1 | 8.97 µM | 163 µM | 19.6 | – | –
CCOC(=O)c1cncn1[C@H](C)c1ccc(I)cc1 | 33 µM | > 300 µM | – | – | –
CC[C@H](c1ccccc1)n1cncc1C(=O)OC | 7.15 µM | 111 µM | 15.8 | – | –
CC(C)(C(=O)c1cccnc1)c1cccnc1 | – | – | – | inactive | inactive
CC(=O)[C@H]1CC[C@H]2[C@@H]3CC[C@H]4C[C@H](O)CC[C@]4(C)[C@H]3CC[C@]12C [BREXANOLONE] | 0.14 µM | 6.2 µM | 50 | – | –
COC(=O)c1cncn1[C@H](C)c1ccc(C)cc1 | 15.5 µM | > 300 µM | – | – | –
COC(=O)c1cncn1[C@@H]1CCc2ccccc21 | 122 µM | > 300 µM | – | – | –
COC(=O)c1cncn1Cc1ccccc1 | 157 µM | > 300 µM | – | – | –
CCCOC(=O)c1cncn1[C@H](C)c1ccccc1 | 1.29 µM | 15.4 µM | 14.1 | – | –
COC(=O)c1cncn1[C@H](C)c1ccc(CO)cc1 | 169 µM | > 300 µM | – | – | –
C[C@H](c1ccccc1)n1cncc1C(=O)OCCF | 4.78 µM | 80 µM | 16.6 | – | –
COC(=O)c1cncn1[C@H](C)c1cccnc1 | – | – | – | inactive | inactive
COC(=O)c1cncn1[C@@H](C)c1ccccc1 | 202 µM | > 300 µM | – | – | –
CC(C)(c1cccnc1)C(O)c1cccnc1 (stereo not given) | – | – | – | inactive | inactive
CC(=O)c1cncn1[C@H](C)c1ccccc1 | 155 µM | > 300 µM | – | – | –
C[C@H](c1ccccc1)n1cncc1C(N)=O | – | – | – | inactive | inactive
